Literature values, collected in patent US5596019A, “N-acyl-cycloalkylamine derivatives as melatonergics” (Bristol-Myers Squibb Company, priority 1995, dated 1997).

Columns and labels:
circadian rhythms = details: exogenous melatonin, rats

COc1ccc2[nH]cc(CCNC(C)=O)c2c1 [melatonin, N-acetyl-5-methoxytryptamine]
synchronization of circadian rhythms (circadian rhythms): synchronize circadian rhythms in rats
oral bioavailability: often low and variable
